Usually IC50 stands for the concentration at which inhibition is half-maximal. The term EC50 denotes the midpoint of the concentration-response curve. One may read the AC50 as the concentration at which the activity in the assay is half-maximal.

The structures appear in SMILES notation. Activity calls are given as the source filed them.

Test [1] deals with T1, Rac GTPase-activating protein 1 (Homo sapiens, UniProt Q9H0H5).
T1 sequence (Q9H0H5 whole entry): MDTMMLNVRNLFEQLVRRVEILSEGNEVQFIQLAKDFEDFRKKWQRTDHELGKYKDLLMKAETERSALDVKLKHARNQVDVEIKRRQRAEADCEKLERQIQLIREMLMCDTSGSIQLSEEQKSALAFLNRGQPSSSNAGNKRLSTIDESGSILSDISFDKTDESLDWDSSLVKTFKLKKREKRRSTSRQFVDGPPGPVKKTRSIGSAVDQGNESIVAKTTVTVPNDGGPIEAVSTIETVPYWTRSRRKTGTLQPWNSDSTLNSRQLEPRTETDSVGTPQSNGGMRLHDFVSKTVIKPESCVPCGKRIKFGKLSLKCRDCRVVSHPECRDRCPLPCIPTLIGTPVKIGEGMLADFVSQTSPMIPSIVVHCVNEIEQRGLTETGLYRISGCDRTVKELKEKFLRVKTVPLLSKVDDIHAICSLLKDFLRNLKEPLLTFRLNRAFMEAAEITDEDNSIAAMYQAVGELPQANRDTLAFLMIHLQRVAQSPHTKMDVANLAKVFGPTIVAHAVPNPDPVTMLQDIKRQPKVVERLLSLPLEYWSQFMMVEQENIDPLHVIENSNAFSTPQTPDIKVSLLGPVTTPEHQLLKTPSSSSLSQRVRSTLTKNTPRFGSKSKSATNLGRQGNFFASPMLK
Nature of the test: MgcRacGAP GTPase-activating activity inhibitors, confirmation, biochemical, ADP Hunter fluorescence, primary and confirmatory (AID 624330). It is filed as functional.

The subject of a further test is H9c2. The test is described as follows: cells. In kind it is functional, cell-based. The settings on record: Rattus norvegicus, H9c2, Myocardium.
Test [2] is described as follows: Luminescence Cell-Based Dose Response HTS to Identify Activators of Luciferase Translation or Activity in H4 […] Cells. [Related pubchem assays: 1829 (Project Summary), 1814 (Primary HTS)]. It is filed as functional.
The next test deals with H4. Nature of the test: Luminescence Cell-Based Dose Response HTS to Identify Activators of 5'UTR Stem-Loop Driven Prion Protein mRNA Translation in H4 Neuroglioblastoma Cells. [Related pubchem assays: 1829 (Project Summary), 1814 (Primary HTS)]. In kind it is functional. As to conditions: Homo sapiens.
Test [3] can be described thus: microbe, parasite or virus in culture. It is filed as functional. As to conditions: Mycobacterium tuberculosis.
A short description of test [4]: Luminescence Cell-Based Dose Confirmation HTS to Identify Activators of 5'UTR Stem-Loop Driven Alpha-Synuclein mRNA Translation in H4 Neuroglioblastoma Cells. [Related pubchem assays: 1829 (Project Summary), 1814 (Primary HTS)]. In kind it is functional.
Test [5] can be described thus: Luminescence Cell-Based Dose Confirmation HTS to Identify Inhibitors of Platelet Dense Granule Release. [Related pubchem assays: 1663 (Primary HTS), 1678 (Summary of Project)]. It is filed as functional.
The target in test [6] is Luciferin 4-monooxygenase (Photinus pyralis, UniProt P08659). The test is described as follows: firefly luciferase enzyme inhibitors, dose response, biochemical, luminescence (AID 1891).
Sequence of Luciferin 4-monooxygenase (P08659 whole entry): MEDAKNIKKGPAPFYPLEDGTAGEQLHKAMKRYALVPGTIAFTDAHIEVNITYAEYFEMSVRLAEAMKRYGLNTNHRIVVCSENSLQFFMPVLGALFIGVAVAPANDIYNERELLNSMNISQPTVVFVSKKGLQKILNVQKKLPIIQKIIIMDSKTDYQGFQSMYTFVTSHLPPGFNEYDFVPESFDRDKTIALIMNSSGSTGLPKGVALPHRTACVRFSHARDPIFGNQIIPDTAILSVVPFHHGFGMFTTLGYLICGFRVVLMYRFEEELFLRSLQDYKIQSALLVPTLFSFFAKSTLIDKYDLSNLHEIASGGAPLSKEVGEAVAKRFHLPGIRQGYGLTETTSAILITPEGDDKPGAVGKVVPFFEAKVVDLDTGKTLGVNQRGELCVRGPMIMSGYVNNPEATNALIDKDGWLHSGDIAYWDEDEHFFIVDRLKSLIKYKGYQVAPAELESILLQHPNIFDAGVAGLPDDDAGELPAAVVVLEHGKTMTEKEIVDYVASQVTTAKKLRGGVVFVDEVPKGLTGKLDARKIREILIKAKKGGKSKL
Test [7] can be described thus: Luminescence Cell-Based Dose Retest to Confirm Inhibitors of Cancer Stem Cells. [Related pubchem assays (depositor defined):AID2717, AID2721]. It is filed as functional. As to conditions: Homo sapiens.
A further test deals with Paired box protein Pax-8 (Homo sapiens, UniProt Q06710). Nature of the test: inhibitors of PAX8-driven TPO luciferase reporter, dose response, RMG-I cells, cherry-pick (AID 687027).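 Further: luciferase reporter driven by Pax8 target thyroperoxidase promoter measured by SteadyGlo luminescence.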 In kind it is functional, cell-based. For orientation: A reporter such as luciferase makes a cellular process visible.
Sequence of Paired box protein Pax-8 (Q06710 whole entry): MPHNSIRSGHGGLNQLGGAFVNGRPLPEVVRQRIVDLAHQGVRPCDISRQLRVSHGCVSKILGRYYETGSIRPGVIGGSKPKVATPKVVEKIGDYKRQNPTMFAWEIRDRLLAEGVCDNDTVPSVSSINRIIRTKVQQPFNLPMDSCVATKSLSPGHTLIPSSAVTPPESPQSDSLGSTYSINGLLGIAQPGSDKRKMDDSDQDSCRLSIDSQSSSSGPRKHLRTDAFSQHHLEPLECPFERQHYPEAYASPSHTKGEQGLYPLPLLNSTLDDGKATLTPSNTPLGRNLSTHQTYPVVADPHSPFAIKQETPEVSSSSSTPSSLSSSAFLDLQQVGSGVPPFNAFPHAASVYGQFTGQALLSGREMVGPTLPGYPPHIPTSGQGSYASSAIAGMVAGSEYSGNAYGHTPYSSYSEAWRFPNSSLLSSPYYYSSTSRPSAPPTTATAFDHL
A short description of test [8]: HEp-2 cell cytotoxicity, dose response, cytotoxicity control for RSV inhibitor project, HTS (AID 2410). It is filed as functional. The settings on record: human respiratory syncytial virus.
For another test, the target named is Cytochrome P450 2C9 (Homo sapiens, UniProt P11712).
Sequence of Cytochrome P450 2C9 (P11712 whole entry): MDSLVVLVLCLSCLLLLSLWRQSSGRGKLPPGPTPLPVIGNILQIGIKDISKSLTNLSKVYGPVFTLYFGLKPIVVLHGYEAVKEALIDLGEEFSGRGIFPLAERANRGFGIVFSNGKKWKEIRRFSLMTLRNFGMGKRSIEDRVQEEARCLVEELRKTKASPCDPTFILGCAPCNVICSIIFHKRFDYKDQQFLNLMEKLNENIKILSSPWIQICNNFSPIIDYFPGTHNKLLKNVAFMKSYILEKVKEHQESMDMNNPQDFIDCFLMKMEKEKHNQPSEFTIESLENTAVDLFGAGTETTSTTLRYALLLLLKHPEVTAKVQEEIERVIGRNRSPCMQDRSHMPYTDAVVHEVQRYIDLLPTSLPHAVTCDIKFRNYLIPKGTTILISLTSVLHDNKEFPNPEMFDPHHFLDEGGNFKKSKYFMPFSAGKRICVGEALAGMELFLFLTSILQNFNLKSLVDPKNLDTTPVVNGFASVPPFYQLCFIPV

For `CCOc1cc(-c2cc(-c3ccc(N)cc3)nc(N)c2C#N)ccc1O`, the values for the IC50 (in [1]; with H9c2) were 131 µM (active) and > 79 µM (inactive), respectively.

With `O=C(NCc1nnnn1-c1ccc(F)cc1)c1ccc([N+](=O)[O-])o1`, the EC50 in [2] is > 60 µM (not active); in the test with H4, 29 µM (active); in [4], 8.58 µM (active). Moreover, the CC50 in [3] was 19.3 µM (active).

`COc1ccccc1NC(=O)C(C)NS(=O)(=O)c1ccccc1` (centres undefined): the EC50 in test [5] and in test [6] was > 112 µM (not active) throughout.

Turning to `O=C(CSCc1c(Cl)cccc1Cl)NCc1ccco1`, the EC50 in [5] and in test [6] was > 112 µM (not active) in each case.

As for `COc1ccc(-c2nc(C[S+]([O-])CC(=O)NC3CCCC(C)C3C)c(C)o2)cc1OC` (centres undefined), the half-maximal effective concentration (EC50) in test [5] and in test [6] was > 112 µM (not active) in each case.

Consider `COc1cccc(CN2CCN(Cc3cccc(Oc4ccccc4)c3)CC2)c1OC`, for which the IC50 in test [1] is 93.1 µM (active).

As for `O=C(Nc1ccccc1Cl)Oc1ccc(-c2ccccc2)cc1`, the IC50 in [1] is 11.3 µM (active).

Consider `COc1cccc(OC)c1C(=O)N1CCN(Cc2ccc3c(c2)OCO3)CC1`, for which the IC50 in [1] is 248 µM (active).

Turning to `Cc1cc(NC(=O)/C=C/c2ccc(Cl)cc2)no1`, the AC50 in test [7] is 22.8 µM (active).

As for `O=C(Nc1ccc(O)cc1)c1cc2n(n1)C(C(F)(F)F)CC(c1ccco1)N2` (centres undefined), the IC50 in [1] is 27.7 µM (active).

Turning to `C[C@@H]1CCCCO[C@H](CN(C)S(=O)(=O)c2ccc(Cl)cc2)[C@@H](C)CN([C@@H](C)CO)C(=O)c2cc(NC(=O)CCC(F)(F)F)ccc2O1`, the AC50 on Paired box protein Pax-8 was 3.2 µM (active).

As for `NC(=O)CC(NC(=O)Cc1ccc(Br)cc1)c1ccc(NC2CC3CCC2C3)c([N+](=O)[O-])c1` (centres undefined), in test [7], the AC50 is 6.22 µM (active).

Turning to `COc1ccc(CNC(=O)c2cc(-c3cc(C)cc(C)c3O)[nH]n2)cc1`, in test [8], the CC50 was > 50 µM (active).

For the molecule `Cc1ccc(Cn2nnc3c(O)nc(C4CCN(S(=O)(=O)c5ccccc5F)CC4)nc32)cc1`, the CC50 in test [8] is 22.2 µM (active).

For the molecule `COc1ccc(S[C@@H](CCN2CC[C@H](NC(=O)OCc3ccccc3)CCC2=O)c2ccccc2)cc1`, the half-maximal activity concentration (AC50) in test [7] was 3.09 µM (active).

Consider `CCOC(=O)NC1(C(F)(F)F)NC(=O)N(Cc2ccco2)C1=O` (centres undefined), for which the EC50 in test [5] and in test [6] was > 112 µM (not active) each time.

As to `Cn1c(=O)c2c(SCc3c(F)cccc3Cl)nc(CC(C)(C)C)nc2n(C)c1=O`, the CC50 in test [8] was 30.1 µM (active).

Regarding `O=C1CCC(c2ccc(-n3ccnc3)cc2)=NN1` [IMAZODAN], the AC50 at Cytochrome P450 2C9 is 31.6 µM (inconclusive). Further, the EC50 in [5] was 1.36 µM (active); in test [6], > 112 µM (not active).

As for `C[C@H](CO)N1C[C@H](C)[C@H](CN(C)C(=O)NC2CCCCC2)OCCCC[C@H](C)Oc2ccc(NC(=O)Nc3ccc(C(F)(F)F)cc3)cc2C1=O`, the AC50 at Paired box protein Pax-8 was 6.15 µM (active).

Turning to `O=C(NCCCNC(=O)c1nc[nH]c1C(=O)Nc1cccc(Cl)c1)c1nc[nH]c1C(=O)Nc1cccc(Cl)c1`, in [7], the AC50 is 3.78 µM (active). For the same molecule, in the test on H9c2, the IC50 is > 79 µM (inactive).

`Cc1ccc(CNc2cnn(C34CC5CC(CC(C5)C3)C4)c(=O)c2Cl)cc1`: in test [7], the AC50 was 1.18 µM (active).

`CCO/C(O)=C1/Sc2ccccc2N=C1C`: the IC50 in test [1] was 53.5 µM (active).

Regarding `CC(/C=N/n1c(S)nnc1C1CCCCC1)=C\c1ccccc1`, the CC50 in test [3] was > 40 µM (active). Further, the concentration at half-maximal activity (AC50) in [7] was 4.26 µM (active).

As for `O=C(Nc1ccc(O)cc1)c1ccccc1OCc1ccccc1`, the half-maximal inhibitory concentration (IC50) in [1] was 30.1 µM (active).

`CCOc1ccccc1N(C(=O)Nc1ccc(Cl)cc1)C1=NCCS1`: in [7], the AC50 is 5.46 µM (active).

As for `Nc1nnnn1/N=C/c1cccc(Br)c1`, the CC50 in test [8] was > 50 µM (active).

Consider `O=C1NC(=S)S/C1=C1\Sc2ccccc2N1CCCS(=O)(=O)O`, for which the 50% inhibitory concentration (IC50) in [1] was 123 µM (active).

Turning to `CN(c1ccccc1)S(=O)(=O)c1cccc(NC(=O)c2cncc(Br)c2)c1`, the CC50 in test [8] is 12.4 µM (active).

Turning to `Cc1ncoc1C(=O)Nc1ccc2c(c1)OCCO2`, the EC50 was 5.11 µM (active) in test [5] and 34.3 µM (active) in test [6].

For the molecule `C[C@@H]1CN([C@@H](C)CO)S(=O)(=O)c2ccc(C#Cc3ccccc3F)cc2O[C@H]1CN(C)CC1CCOCC1`, on Paired box protein Pax-8, the AC50 was 10.3 µM (active).

`CCOC(=O)C(=O)NNc1ccc(F)cc1`: the AC50 in test [7] was 0.837 µM (active).

In the case of `O=C(Cc1nnc(O)c2ccccc12)NCc1ccc(Cl)cc1`, the IC50 in the test on H9c2 was > 79 µM (inactive). In addition, the EC50 in [5] and in [6] was > 112 µM (not active) in each case.

`COc1ccc(NC(=O)CN2C(=O)C(c3ccccc3)=NC23CCCCCC3)cc1`: the EC50 in test [5] and in test [6] was > 112 µM (not active) in each case.

With `Cc1cc(C)n(C(=O)c2ccc(S(=O)(=O)N3CCCC3)cc2)n1`, the EC50 in [5] and in [6] was > 112 µM (not active) throughout.

With `CN1C2=CC=CC=CC2=[N+](C)C12C([N+](=O)[O-])=CC(=[N+]([O-])[O-])C=C2[N+](=O)[O-]` (centres undefined), the EC50 (in [2]; with H4; in test [4]) was > 120 µM (not active) throughout.

Source of the values: ChEMBL document CHEMBL1201862, “PubChem BioAssay data set” (2004).
